# According to patent US8575089B2, “Composition for preventing or treating inflammation” (University-Industry Cooperation Group of Kyung Hee, priority 2009, dated 2013):
# Where no end group is shown, it is not given here.
# Assays:
# IL-6 and TNFα = test: Radiation-irradiating model: inflammatory cytokines IL-6 and TNFα in serum (ELISA); format: in vivo, C57b1/6 mice; details: mice, 8 Gy, 5 nmole/kg SP i.v.
# Method: 5 nmole/kg of SP dissolved in a physiological saline was injected to a tail vein of C57b1/6 mice (8 weeks, sex; male, n=4, Average weight; 20 g) one day before irradiation and immediately after irradiation. The irradiation was performed at 8 Gy radiation in a Gamma lay radiation irradiator (^137Cs, Atomic Energy of Canada, Mississauga, Canada). The mice were sacrificed at 4.5 hours and one day after irradiation, and then the blood was collected. The part of the blood was used for analyzing CBC (Complete Blood Count) and the remaining blood was used to isolate serum and then analyze cytokines
# IL-6 and TNFα that are well known as inflammatory cytokines were analyzed. Specific procedures were as follows: Serum samples stored in […] and reagents, controls, and standard proteins stored in a cold storage were taken out at a room temperature. 50 μl of diluted solution was put into each well; 50 μl of standard, control, and samples were added; well mixed by lightly tapping the plate; and then placed for 2 hours at a room temperature. […] After 30 minutes, 100 μl of stop codon was treated to stop the reaction; the optical density was measured at 450 nm; the amounts of cytokines were converted based on a protein conversion formula by a standard sample; and then the result was shown in FIG. 8. […]
# leukocytes in blood = test: Corneal epithelial burn model: number of leukocytes in blood; format: in vivo, New Zealand white rabbit; details: rabbit, alkali burn of cornea; 5 nmole/kg SP i.v. twice; after three days after burning; vs continuously increased without SP; FIG. 6
# Method: (§1) Ketalar (50 mg/ml, Yuhan Corporation) and Rompun (23.32 mg (Xylazine hydrochloride)/ml, Bayer Korea Corporation) were mixed in a rate of 2:1, and then total 900 μl (Ketalar 600 μl: Rompun 300 μl) was injected into muscles of rabbits (New Zealand white rabbit, Male, 2.5 kg, n=4). After the intramuscular injection, 300 μl (Ketalar 200 μl: Rompun 100 μl) of the same anesthetic drug was injected in the rabbit's ear vein.
# A 6 mm paper disc fully wetted by 1N NaOH was contacted to a limbus part of rabbit's cornea for 10 seconds. After alkali burning, corneal epithelium was removed in a size of the paper disc. The rabbit's eyes were quickly washed with a physiological saline immediately after alkali burning. At the same time, 5 nmole/kg of SP dissolved in a physiological saline was intravenously injected, and then after 24 hours, was injected once more (immediately after burning and at 24 hours after burning). For the control, PBS with the same volume was injected (injection Volume: 1 ml). […]
# 2 ml of the whole 10 ml was used for counting blood cells and the number of leukocytes was analyzed in Neodin (Company for analysis of blood cells). Concretely, 2 ml of blood was added to a vial including EDTA; it was well mixed; then the whole leukocyte level was analyzed in an automatic analyzer (SYSMEX XE-2100 automatic analyzer from SYSMEX Corporation [Japan]); and then the results were shown in FIG. 6.
# [1] = system: mononuclear cells isolated from peripheral blood; test: IL-6 and IL-10 expression (ELISA) in peripheral blood mononuclear cells treated with SP; format: cell-based, C57b1/6 mice; details: peripheral blood mononuclear cells in T-cell activation media (ConA); 10 nmole/kg SP; 4.5, 10, 24 hours; FIG. 1
# Method: Peripheral blood was collected from C57b1/6 mice (8 weeks, sex; male, n=5, Average Weight; 20 g), diluted doubly with PBS, carefully placed on Ficoll in a tube, and then centrifuged at 2200 rpm for 20 minutes. By centrifuging, from the bottom, an erythrocyte layer, a ficoll layer, a mononuclear cell layer, and a plasma layer were obtained in order. The mononuclear cell layer and plasma layer were isolated, excluding the erythrocyte layer and ficoll layer, and then washed one time with PBS. Then, the number of cells was counted; the cells with a concentration of 1×10^5/0.2 ml were seeded onto T-cell activation media (lymphocyte activation media; RPMI, 10% FBS, 100 μM 2-mercaptoetanol, 20 μg/ml ConA); then the cells were cultured at an incubator of 37° C.; and then culture supernatant was taken at 4.5 hours, 10 hours, and 24 hours. For SP-treated group, 10 nmole/kg of SP dissolved in a physiological saline was treated to T-cell activation media. […] After 30 minutes, 100 μl of stop codon was treated to stop the reaction; the optical density was measured at 450 nm; the amounts of cytokines were converted based on a protein conversion formula by a standard sample; and then the results were shown in FIG. 1.
# [2] = system: hematopoietic stem cells in blood; test: Corneal epithelial burn model: HSC-CFU assay of blood cells; format: in vivo, New Zealand white rabbit; details: rabbit, alkali burn of cornea; 5 nmole/kg SP i.v. immediately and 24 hours after burning; without SP peak at five days; FIG. 5
# Method: as §1
# A 6 mm paper disc fully wetted by 1N NaOH was contacted to a limbus part of rabbit's cornea for 10 seconds. After alkali burning, corneal epithelium was removed in a size of the paper disc. The rabbit's eyes were quickly washed with a physiological saline immediately after alkali burning. At the same time, 5 nmole/kg of SP dissolved in a physiological saline was intravenously injected, and then after 24 hours, was injected once more (immediately after burning and at 24 hours after burning). For the control, PBS with the same volume was injected (injection Volume: 1 ml).
# Peripheral blood was collected from ear veins in 10 ml at one, three, five and seven days after alkali burning. […]
# 1×10^4 cells among the whole cells was used for HSC-CFU assay. […] The cells were cultured in the media for 2 weeks (5% CO2, 37° C.), the number of colonies was counted by using a microscope (Leica) and then the results were shown in FIG. 5.
# pancreas beta cells = test: Streptozotocin-induced Type I diabetes: insulin IHC staining of pancreas; format: in vivo, ICR mouse
substance,measurement,setting,value
"Substance-P (RPKPQQFFGLM; not fully specified; ends and bridges not checked; UniProt P20366 58-68, looked up)",inhibition of increase of IL-6 in serum,"IL-6 and TNFα; 4.5 hours after irradiation, vs group without SP, FIG. 8A",about 30%
same,TNF α in serum,"IL-6 and TNFα; one day after irradiation, FIG. 8",inhibited
same,number of leukocytes in blood (increase % based on Day 0-level),leukocytes in blood,sharply decreased
same,expression level of IL-6 in culture supernatant,[1],no a significant difference
same,expression level of IL-10 in culture supernatant,[1],increased
same,number of HSC (HSC-CFU colonies) in blood,[2],increased at early stage and then decreased immediately three days after injection
same,diabetes lesion,"pancreas beta cells; STZ-induced diabetes, SP treated after inducing diabetes",becomes weak
same,progress of Type I diabetes,"pancreas beta cells; STZ-induced diabetes, SP treated when diabetes was induced",inhibits
same,death of beta cells secreting insulin,"pancreas beta cells; STZ-induced diabetes, mice sacrificed at 11 weeks, FIG. 12",inhibited
same,insulin secretion (Insulin IHC staining of pancreas),"pancreas beta cells; group with injecting SP, mice sacrificed at 11 weeks, vs significantly low with only STZ, FIG. 12",high
